Measured values: US10935540B2, “GDF-15 as a haematological toxicity biomarker” (Novartis AG, priority 2015, dated 2021)

Legend:
[1] = system: patients with solid tumors; experiment: Maximum change of platelet and neutrophil count versus GDF-15 fold change in patients with solid tumors receiving compound of formula I; assay type: in vivo, human; settings: regimen 1A (q3w) 12.5-350 mg or regimen 1B 120 mg
Protocol: Maximum change of platelet count (FIG. 7) and neutrophil count (FIG. 8) and the GDF-15 values were determined for patients with solid tumors receiving compound of formula I, i.e. (S)-5-(5-Chloro-1-methyl-2-oxo-1,2-dihydro-pyridin-3-yl)-6-(4-chloro-phenyl)-2-(2,4-dimethoxy-pyrimidin-5-yl)-1-isopropyl-5,6-dihydro-1H-pyrrolo[3,4-d]imidazol-4-one, on the first day of a three week cycle (herein also referred to as regimen 1A or q3w) in doses of 12.5 mg (A), 25 mg (B), 50 mg (C), 100 mg (D), 200 mg (E), 250 mg (F), 350 mg(G) or on the first and eighth day of a 4 week cycle (herein also referred to as regimen 1B) in a dose of 120 mg (I). The left graphs show the maximum platelet count change vs. GDF-15 fold change, the GDF-15 being measured on day 1 of the first cycle (C1D1). The right graphs show the maximum platelet count change vs. GDF-15 fold change.
The platelet/neutrophil count was determined before receipt of first dose (baseline) and on day 1, 7 and 15 of the first and second cycle for regimen 1A (A-G) or on day 1, 8, 14, 22 of the first and second cycle for regimen 1B (I) and the maximum platelet change value in comparison to the baseline was selected. The “Change of platelet/neutrophile counts” value is calculated as post-baseline value minus baseline value and given in number of platelets/neutrophils per microliter of blood. […]

thrombopoesis = settings: previous studies; cited from earlier work
[2] = system: patients with liposarcomas; settings: cited from earlier work
animal model = settings: cited from earlier work
patients = experiment: Clinical analysis of serum GDF-15 (ELISA) versus platelet counts in patients treated with Compound A; assay type: in vivo, human; settings: 21 patients, continuous three times weekly oral administration; preliminary analysis (FIG. 3)
Protocol: Patients were treated with (5)-1-(4-Chloro-phenyl)-7-isopropoxy-6-methoxy-2-(4-{methyl-[4-(4-methyl-3-oxo-piperazin-1-yl)-trans-cyclohexylmethyl]-amino}-phenyl)-1,4-dihydro-2H-isoquinolin-3-one (Compound A). Dose range was from 10 to 500 mg three times a week (3QW) with continuous or 2 week on 1 week off dosing regimen. Serum samples were collected from each subject at pre-dose and from 0.5 to 6 h post-dose on the first treatment day.
The serum level of GDF-15 expression was measured using enzyme-linked immunosorbent assay (ELISA; R&D Systems kit DGD150).
Clinical data (including platelet counts) were collected from all patients during the course of the treatment period.
Maximum observation period was 448 days on available platelet data.
A preliminary data analysis of (S)-1-(4-Chloro-phenyl)-7-isopropoxy-6-methoxy-2-(4-{methyl-[4-(4-methyl-3-oxo-piperazin-1-yl)-trans-cyclohexylmethyl]-amino}-phenyl)-1,4-dihydro-2H-isoquinolin-3-one effect on GDF-15 and platelet counts for 21 patients treated on a continuous three times weekly oral administration of (S)-1-(4-Chloro-phenyl)-7-isopropoxy-6-methoxy-2-(4-{methyl-[4-(4-methyl-3-oxo-piperazin-1-yl)-trans-cyclohexylmethyl]-amino}-phenyl)-1,4-dihydro-2H-isoquinolin-3-one was conducted. The conducted data analysis is represented in a plot on FIG. 3. In this plot, each point represents an individual patient. […]

## COc1ncc(-c2nc3c(n2C(C)C)[C@H](c2ccc(Cl)cc2)N(c2cc(Cl)cn(C)c2=O)C3=O)c(OC)n1 [compound of formula I, (S)-5-(5-Chloro-1-methyl-2-oxo-1,2-dihydro-pyridin-3-yl)-6-(4-chloro-phenyl)-2-(2,4-dimethoxy-pyrimidin-5-yl)-1-isopropyl-5,6-dihydro-1H-pyrrolo[3,4-d]imidazol-4-one]
[1]; seen already for GDF-15 C1D1 24 h post-dose (FIG. 7)
  correlation of GDF-15 increase with platelet count change: correlates with a decrease
[1]; seen already for GDF-15 C1D1 24 h post-dose (FIG. 8)
  correlation of GDF-15 increase with neutrophil count change: correlates with a decrease

## CCOc1cc(C(C)(C)C)ccc1C1=N[C@@](C)(c2ccc(Cl)cc2)[C@@](C)(c2ccc(Cl)cc2)N1C(=O)N1CCN(CCCS(C)(=O)=O)CC1 [RG7112]
thrombopoesis
  effect on thrombopoesis: impairs thrombopoesis
[2]; RG7112 administration
  major dose-limiting toxicity: thrombocytopenia
[2]; single-agent RG-7112, patients with liposarcomas
  patients with induced thrombocytopenia: 40 % of patients
Animal model
  time course of drug-induced thrombocytopenia: occurred rather late during the treatment period and persisted after drug discontinuation

## COc1cc2c(cc1OC(C)C)[C@H](c1ccc(Cl)cc1)N(c1ccc(N(C)C[C@H]3CC[C@H](N4CCN(C)C(=O)C4)CC3)cc1)C(=O)C2 [Compound A, (S)-1-(4-Chloro-phenyl)-7-isopropoxy-6-methoxy-2-(4-{methyl-[4-(4-methyl-3-oxo-piperazin-1-yl)-trans-cyclohexylmethyl]-amino}-phenyl)-1,4-dihydro-2H-isoquinolin-3-one]
patients
  cycle 1 day 1 GDF-15 increase from baseline associated with a higher occurrence of platelet counts dropping below 150 G/L (grade 1 thrombocytopenia CTCAE V4): more than 25%
